Results: ChEMBL document CHEMBL3425446, “Isolation, semi-synthesis and bio-evaluation of spatane derivatives from the brown algae Stoechospermum marginatum” (Bioorg Med Chem Lett, 2015)
In brackets after ≈: the same amount, converted by molar mass. Activity calls are given as the source filed them. No cut-off for these calls is given here.

Key:
Klebsiella pneumoniae [1] = assay: Antibacterial activity against Klebsiella pneumoniae assessed as compound concentration required to complete growth inhibition at 8 hrs by tube dilution method; assay type: functional
[2] = Cytotoxicity against human HL60 cells assessed as decrease in cell number after 24 hrs by MTT assay; assay type: functional, cell-based; details: HL-60, 24 h
Klebsiella pneumoniae [3] = assay: Antibacterial activity against Klebsiella pneumoniae assessed as growth inhibition at 0.5 mg/ml after 24 hrs by well diffusion method; assay type: functional; details: read-out: DIZ
Bacillus subtilis [4] = assay: Antibacterial activity against Bacillus subtilis assessed as growth inhibition at 0.5 mg/ml after 24 hrs by well diffusion method; assay type: functional; details: read-out: DIZ
Escherichia coli [5] = assay: Antibacterial activity against Escherichia coli assessed as growth inhibition at 0.5 mg/ml after 24 hrs by well diffusion method; assay type: functional; details: read-out: DIZ
Micrococcus luteus [6] = assay: Antibacterial activity against Micrococcus luteus assessed as growth inhibition at 0.5 mg/ml after 24 hrs by well diffusion method; assay type: functional; details: read-out: DIZ
Micrococcus luteus [7] = assay: Antibacterial activity against Micrococcus luteus assessed as compound concentration required to complete growth inhibition at 8 hrs by tube dilution method; assay type: functional
[8] = Cytotoxicity against mouse B16F10 cells assessed as decrease in cell number after 24 hrs by MTT assay; assay type: functional, cell-based; details: B16-F10, 24 h
Escherichia coli [9] = assay: Antibacterial activity against Escherichia coli assessed as compound concentration required to complete growth inhibition at 8 hrs by tube dilution method; assay type: functional
THP-1 = assay: Cytotoxicity against human THP1 cells assessed as decrease in cell number after 24 hrs by MTT assay; assay type: functional, cell-based; details: THP-1, 24 h
[10] = Cytotoxicity against human U937 cells assessed as decrease in cell number after 24 hrs by MTT assay; assay type: functional, cell-based; details: U-937, 24 h
COLO 205 [11] = assay: Cytotoxicity against human COLO205 cells assessed as decrease in cell number after 24 hrs by MTT assay; assay type: functional, cell-based; details: COLO 205, 24 h
Bacillus subtilis [12] = assay: Antibacterial activity against Bacillus subtilis assessed as compound concentration required to complete growth inhibition at 8 hrs by tube dilution method; assay type: functional
HL-60 = assay: Cytotoxicity against human HL60 cells assessed as growth inhibition at 200 ug/ml after 24 hrs by MTT assay; assay type: functional, cell-based
COLO 205 [13] = assay: Cytotoxicity against human COLO205 cells assessed as growth inhibition at 200 ug/ml after 24 hrs by MTT assay; assay type: functional, cell-based

MIC (Klebsiella pneumoniae [1])	MIC (Micrococcus luteus [7])	MIC (Escherichia coli [9])	MIC (Bacillus subtilis [12])	Compound	IC50 [2]	zone of inhibition at 500 µg/mL (Klebsiella pneumoniae [3])	zone of inhibition at 500 µg/mL (Bacillus subtilis [4])	zone of inhibition at 500 µg/mL (Escherichia coli [5])	zone of inhibition at 500 µg/mL (Micrococcus luteus [6])	IC50 [8]	IC50 (THP-1)	IC50 [10]	IC50 (COLO 205 [11])	growth inhibition (GI) (HL-60)	growth inhibition (GI) (COLO 205 [13])
100 µg/mL (≈ 328 µM)	200 µg/mL (≈ 657 µM)	200 µg/mL (≈ 657 µM)	200 µg/mL (≈ 657 µM)	C=C(C(O)/C=C/C(C)=O)[C@@H]1C[C@@H](O)[C@@]2(C)[C@@H]1[C@@H]1[C@H](C)CC[C@@H]12 (some centres undefined)	42.3 µg/mL (≈ 139 µM)	11.7 mm	12 mm	17.3 mm	12.7 mm	17 µg/mL (≈ 55.9 µM)	38.9 µg/mL (≈ 128 µM)	13 µg/mL (≈ 42.8 µM)	42.1 µg/mL (≈ 138 µM)		
200 µg/mL (≈ 432 µM)	100 µg/mL (≈ 216 µM)	100 µg/mL (≈ 216 µM)	100 µg/mL (≈ 216 µM)	C=C(C(/C=C/C(C)(O)COC(C)=O)OC(C)=O)[C@@H]1C[C@@H](OC(C)=O)[C@@]2(C)[C@@H]1[C@@H]1[C@H](C)CC[C@@H]12 (some centres undefined)		16.3 mm	18 mm	21.3 mm	17.3 mm	54.1 µg/mL (≈ 117 µM)	188 µg/mL (≈ 407 µM)	38.4 µg/mL (≈ 83.1 µM)		inactive	inactive
100 µg/mL (≈ 266 µM)	50 µg/mL (≈ 133 µM)	100 µg/mL (≈ 266 µM)	100 µg/mL (≈ 266 µM)	C=C(C(=O)/C=C/C(C)(O)COC(C)=O)[C@@H]1C[C@@H](O)[C@@]2(C)[C@@H]1[C@@H]1[C@H](C)CC[C@@H]12 (some centres undefined)	51.8 µg/mL (≈ 138 µM)	14 mm	15.7 mm	17 mm	16.7 mm	3.28 µg/mL (≈ 8.71 µM)	15.2 µg/mL (≈ 40.3 µM)	9.58 µg/mL (≈ 25.4 µM)	35.1 µg/mL (≈ 93.3 µM)		
200 µg/mL (≈ 478 µM)	100 µg/mL (≈ 239 µM)	200 µg/mL (≈ 478 µM)	100 µg/mL (≈ 239 µM)	C=C(C(=O)/C=C/C(C)(O)COC(C)=O)[C@@H]1C[C@@H](OC(C)=O)[C@@]2(C)[C@@H]1[C@@H]1[C@H](C)CC[C@@H]12 (some centres undefined)	35.6 µg/mL (≈ 85.1 µM)	19.7 mm	21.7 mm	23.7 mm	21.7 mm	4.41 µg/mL (≈ 10.5 µM)	33.9 µg/mL (≈ 80.9 µM)	8.8 µg/mL (≈ 21 µM)	26.8 µg/mL (≈ 64 µM)		
50 µg/mL (≈ 164 µM)	100 µg/mL (≈ 328 µM)	100 µg/mL (≈ 328 µM)	100 µg/mL (≈ 328 µM)	C=C(C[C@@H](O)C=C(C)C)[C@@H]1C[C@@H](O)[C@@]2(C)[C@@H]1[C@@H]1[C@H](C)CC[C@@H]12	41.6 µg/mL (≈ 137 µM)	16.7 mm	13.7 mm	12.3 mm	14 mm	46.7 µg/mL (≈ 153 µM)	53 µg/mL (≈ 174 µM)	51.3 µg/mL (≈ 168 µM)	72.2 µg/mL (≈ 237 µM)		
200 µg/mL (≈ 577 µM)	200 µg/mL (≈ 577 µM)	200 µg/mL (≈ 577 µM)	400 µg/mL (≈ 1150 µM)	C=C(CC(C=C(C)C)OC(C)=O)[C@@H]1C[C@@H](O)[C@@]2(C)[C@@H]1[C@@H]1[C@H](C)CC[C@@H]12 (some centres undefined)	198 µg/mL (≈ 572 µM)	11.7 mm	0 mm	10.7 mm	10.3 mm	73.2 µg/mL (≈ 211 µM)	50.3 µg/mL (≈ 145 µM)	60 µg/mL (≈ 173 µM)	87.3 µg/mL (≈ 252 µM)		
100 µg/mL (≈ 328 µM)	100 µg/mL (≈ 328 µM)	100 µg/mL (≈ 328 µM)	100 µg/mL (≈ 328 µM)	C=C(C/C=C/C(C)(C)O)[C@@H]1C[C@@H](O)[C@@]2(C)[C@@H]1[C@@H]1[C@H](C)CC[C@@H]12		16 mm	13.7 mm	12.7 mm	16.3 mm	174 µg/mL (≈ 572 µM)	50 µg/mL (≈ 164 µM)	42.3 µg/mL (≈ 139 µM)		inactive	inactive
50 µg/mL	50 µg/mL	50 µg/mL	50 µg/mL	C=C(C(O)/C=C/C(C)(O)COC(C)=O)[C@@H]1C[C@@H](OC(C)=O)[C@@]2(C)[C@@H]1[C@@H]1[C@H](C)CC[C@@H]12 (mixture of isomers)	41 µg/mL	10.7 mm	14.3 mm	11.3 mm	14.7 mm	3.45 µg/mL	14.2 µg/mL	5.6 µg/mL	36.1 µg/mL		
200 µg/mL	200 µg/mL	100 µg/mL	100 µg/mL	C=C(C(O)/C=C/C(C)(O)COC(C)=O)[C@@H]1CC(=O)[C@@]2(C)[C@@H]1[C@@H]1[C@H](C)CC[C@@H]12 (mixture of isomers)	43.9 µg/mL	0 mm	0 mm	0 mm	0 mm	58.5 µg/mL	52 µg/mL	43.6 µg/mL			inactive
400 µg/mL	400 µg/mL	400 µg/mL	400 µg/mL	C=C(CC(C=C(C)C)OC(C)=O)[C@@H]1C[C@@H](OC(C)=O)[C@@]2(C)[C@@H]1[C@@H]1[C@H](C)CC[C@@H]12 (mixture of isomers)	84.9 µg/mL	12.3 mm	11.3 mm	0 mm	12.3 mm	29 µg/mL	77.8 µg/mL	40.1 µg/mL	67.1 µg/mL		
200 µg/mL	200 µg/mL	400 µg/mL	200 µg/mL	C=C(C/C=C/C(C)(C)O)[C@@H]1C[C@@H](OC(C)=O)[C@@]2(C)[C@@H]1[C@@H]1[C@H](C)CC[C@@H]12 (mixture of isomers)	39.9 µg/mL	16 mm	15.3 mm	13.3 mm	15.3 mm	47.1 µg/mL	44.6 µg/mL	48.5 µg/mL	64.7 µg/mL		
50 µg/mL	50 µg/mL	100 µg/mL	100 µg/mL	C=C(C)C(O)CCC(=C)[C@@H]1C[C@@H](OC(C)=O)[C@@]2(C)[C@@H]1[C@@H]1[C@H](C)CC[C@@H]12 (mixture of isomers)	157 µg/mL	19 mm	13.7 mm	15.7 mm	16.3 mm	104 µg/mL	58.1 µg/mL	35.1 µg/mL	145 µg/mL		
				COc1cc([C@@H]2c3cc4c(cc3[C@@H](O[C@@H]3O[C@@H]5CO[C@@H](C)O[C@H]5[C@H](O)[C@H]3O)[C@H]3COC(=O)[C@H]23)OCO4)cc(OC)c1O [ETOPOSIDE]	2.12 µg/mL (≈ 3.6 µM)					4.12 µg/mL (≈ 7 µM)	5.02 µg/mL (≈ 8.53 µM)	2.27 µg/mL (≈ 3.86 µM)	1.07 µg/mL (≈ 1.82 µM)		

Compound	MIC (Klebsiella pneumoniae [1])	MIC (Micrococcus luteus [7])	MIC (Escherichia coli [9])	MIC (Bacillus subtilis [12])	IC50 [2]	zone of inhibition at 500 µg/mL (Klebsiella pneumoniae [3])	zone of inhibition at 500 µg/mL (Bacillus subtilis [4])	zone of inhibition at 500 µg/mL (Escherichia coli [5])	zone of inhibition at 500 µg/mL (Micrococcus luteus [6])	IC50 [8]	IC50 (THP-1)	IC50 [10]	IC50 (COLO 205 [11])	growth inhibition (GI) (HL-60)	growth inhibition (GI) (COLO 205 [13])
CN[C@@H]1[C@H](O[C@H]2[C@H](O[C@H]3[C@H](O)[C@@H](O)[C@H](N=C(N)N)[C@@H](O)[C@@H]3N=C(N)N)O[C@@H](C)[C@]2(O)C=O)O[C@@H](CO)[C@H](O)[C@H]1O.CN[C@@H]1[C@H](O[C@H]2[C@H](O[C@H]3[C@H](O)[C@@H](O)[C@H](N=C(N)N)[C@@H](O)[C@@H]3N=C(N)N)O[C@@H](C)[C@]2(O)C=O)O[C@@H](CO)[C@H](O)[C@H]1O.O=S(=O)(O)O.O=S(=O)(O)O.O=S(=O)(O)O [STREPTOMYCIN SULFATE]	6.25 µg/mL	6.25 µg/mL	6.25 µg/mL	6.25 µg/mL		27.3 mm	28.7 mm	30.3 mm	28.7 mm						
